Among the data in the supplement of paper PMC10307832 are relative viability values, retold here.

Common to all, as to assay: relative viability (nuclei count vs DMSO), 5 days (fraction); higher = more cells survive
Compound in the test “Palbociclib + Trametinib”: CC(=O)c1c(C)c2cnc(Nc3ccc(N4CCNCC4)cn3)nc2n(C2CCCC2)c1=O [Palbociclib] + CC(=O)Nc1cccc(-n2c(=O)n(C3CC3)c(=O)c3c(Nc4ccc(I)cc4F)n(C)c(=O)c(C)c32)c1 [Trametinib] (partner 0.02 µM)
The procedure, abridged: (§1)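 Lung cancer cell lines in 1536-well plates got either a single drug or a fixed anchor-drug dose together with five library-drug doses (not always all listed) in √10 steps, by pin tool, on the day after seeding. Nuclei were counted after 5 days, and relative viability is the treated-to-vehicle ratio of nuclei counts. Values are medians of duplicate plates.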

Compound in the test “Palbociclib + Navitoclax”: CC(=O)c1c(C)c2cnc(Nc3ccc(N4CCNCC4)cn3)nc2n(C2CCCC2)c1=O [Palbociclib] + CC1(C)CCC(c2ccc(Cl)cc2)=C(CN2CCN(c3ccc(C(=O)NS(=O)(=O)c4ccc(N[C@H](CCN5CCOCC5)CSc5ccccc5)c(S(=O)(=O)C(F)(F)F)c4)cc3)CC2)C1 [Navitoclax] (partner 0.5 µM)
The procedure, abridged: as §1

Compound in the test “Palbociclib + Tozasertib”: CC(=O)c1c(C)c2cnc(Nc3ccc(N4CCNCC4)cn3)nc2n(C2CCCC2)c1=O [Palbociclib] + Cc1cc(Nc2cc(N3CCN(C)CC3)nc(Sc3ccc(NC(=O)C4CC4)cc3)n2)n[nH]1 [Tozasertib] (partner 0.1 µM)
The procedure, abridged: as §1

Compound in the test “Palbociclib + Decitabine”: CC(=O)c1c(C)c2cnc(Nc3ccc(N4CCNCC4)cn3)nc2n(C2CCCC2)c1=O [Palbociclib] + Nc1ncn([C@H]2C[C@H](O)[C@@H](CO)O2)c(=O)n1 [Decitabine] (partner 2 µM)
Put shortly: as §1

Regarding LCLC-97TM1, the relative viability came out at 0.209 with Palbociclib + Trametinib (first compound 0.01 µM); 0.208 with Palbociclib + Trametinib (first compound 0.1 µM); 0.182 with Palbociclib + Trametinib (first compound 0.3162 µM); 0.184 in the test with Palbociclib + Trametinib (first compound 1 µM); 0.401 with Palbociclib + Navitoclax (first compound 0.01 µM); 0.27 with Palbociclib + Navitoclax (first compound 0.1 µM). The relative viability with Palbociclib + Navitoclax (first compound 0.3162 µM) worked out at 0.294; with Palbociclib + Navitoclax (first compound 1 µM), 0.281; in the test with Palbociclib + Tozasertib (first compound 0.01 µM), 0.218; in the test with Palbociclib + Tozasertib (first compound 0.03162 µM) it was 0.206; with Palbociclib + Tozasertib (first compound 0.1 µM) it was 0.202; with Palbociclib + Tozasertib (first compound 0.3162 µM) it was 0.216. Moreover, the relative viability turned out to be 0.169 with Palbociclib + Tozasertib (first compound 1 µM); 0.23 with Palbociclib + Decitabine (first compound 0.01 µM); 0.231 with Palbociclib + Decitabine (first compound 0.1 µM); 0.239 with Palbociclib + Decitabine (first compound 0.3162 µM); 0.198 with Palbociclib + Decitabine (first compound 1 µM).

Turning to LCLC-103H, the relative viability with Palbociclib + Trametinib (first compound 0.01 µM) stood at 0.7; with Palbociclib + Trametinib (first compound 0.03162 µM), 0.617; with Palbociclib + Trametinib (first compound 0.1 µM), 0.686; with Palbociclib + Trametinib (first compound 0.3162 µM), 0.654; in the test with Palbociclib + Trametinib (first compound 1 µM) it was 0.547; with Palbociclib + Tozasertib (first compound 0.01 µM), 0.483. In addition, the relative viability with Palbociclib + Tozasertib (first compound 0.03162 µM) was 0.385; with Palbociclib + Tozasertib (first compound 0.1 µM), 0.559; with Palbociclib + Tozasertib (first compound 0.3162 µM) it was 0.423; in the test with Palbociclib + Tozasertib (first compound 1 µM), 0.357; with Palbociclib + Decitabine (first compound 0.01 µM) it was 0.675; with Palbociclib + Decitabine (first compound 0.03162 µM), 0.76. The relative viability in the test with Palbociclib + Decitabine (first compound 0.1 µM) stood at 0.674; with Palbociclib + Decitabine (first compound 0.3162 µM), 0.679; in the test with Palbociclib + Decitabine (first compound 1 µM) it was 0.627.

Regarding LK-2, the relative viability with Palbociclib + Trametinib (first compound 0.01 µM) amounted to 0.788; in the test with Palbociclib + Trametinib (first compound 0.03162 µM), 0.676; with Palbociclib + Trametinib (first compound 0.1 µM), 0.752; in the test with Palbociclib + Trametinib (first compound 0.3162 µM) it was 0.633; with Palbociclib + Trametinib (first compound 1 µM) it was 0.708; in the test with Palbociclib + Navitoclax (first compound 0.01 µM) it was 1.04. Besides, the relative viability stood at 0.651 in the test with Palbociclib + Navitoclax (first compound 0.1 µM); 0.819 with Palbociclib + Navitoclax (first compound 0.3162 µM); 0.843 in the test with Palbociclib + Navitoclax (first compound 1 µM); 0.167 with Palbociclib + Tozasertib (first compound 0.01 µM); 0.15 with Palbociclib + Tozasertib (first compound 0.1 µM); 0.196 with Palbociclib + Tozasertib (first compound 0.3162 µM). Moreover, the relative viability with Palbociclib + Tozasertib (first compound 1 µM) was determined as 0.167; with Palbociclib + Decitabine (first compound 0.01 µM), 0.299; with Palbociclib + Decitabine (first compound 0.03162 µM), 0.213; with Palbociclib + Decitabine (first compound 0.1 µM) it was 0.333; with Palbociclib + Decitabine (first compound 0.3162 µM) it was 0.324; with Palbociclib + Decitabine (first compound 1 µM) it was 0.283.

Take LOU-NH91: the relative viability with Palbociclib + Trametinib (first compound 0.01 µM) came to 0.798; in the test with Palbociclib + Trametinib (first compound 0.03162 µM), 0.662; with Palbociclib + Trametinib (first compound 0.1 µM) it was 0.581; with Palbociclib + Trametinib (first compound 0.3162 µM), 0.612; with Palbociclib + Trametinib (first compound 1 µM) it was 0.62; in the test with Palbociclib + Navitoclax (first compound 0.01 µM), 0.721. Further, the relative viability with Palbociclib + Navitoclax (first compound 0.03162 µM) was 0.491; with Palbociclib + Navitoclax (first compound 0.1 µM), 0.457; in the test with Palbociclib + Navitoclax (first compound 0.3162 µM), 0.505; in the test with Palbociclib + Navitoclax (first compound 1 µM), 0.462; with Palbociclib + Tozasertib (first compound 0.01 µM), 0.778; in the test with Palbociclib + Tozasertib (first compound 0.03162 µM) it was 0.51. Also, the relative viability came to 0.541 with Palbociclib + Tozasertib (first compound 0.1 µM); 0.575 with Palbociclib + Tozasertib (first compound 0.3162 µM); 0.452 with Palbociclib + Tozasertib (first compound 1 µM); 0.817 with Palbociclib + Decitabine (first compound 0.01 µM); 0.732 in the test with Palbociclib + Decitabine (first compound 0.03162 µM); 0.693 with Palbociclib + Decitabine (first compound 0.1 µM). The relative viability was 0.631 with Palbociclib + Decitabine (first compound 0.3162 µM) and 0.61 with Palbociclib + Decitabine (first compound 1 µM).

On to LU99A, for which the relative viability with Palbociclib + Trametinib (first compound 0.01 µM) was 0.557; with Palbociclib + Trametinib (first compound 0.1 µM), 0.523; with Palbociclib + Trametinib (first compound 0.3162 µM), 0.573; with Palbociclib + Trametinib (first compound 1 µM) it was 0.478; in the test with Palbociclib + Navitoclax (first compound 0.01 µM) it was 0.789; with Palbociclib + Navitoclax (first compound 0.03162 µM), 0.677. For the same cell line, the relative viability with Palbociclib + Navitoclax (first compound 0.1 µM) was 0.759; with Palbociclib + Navitoclax (first compound 0.3162 µM), 0.601; in the test with Palbociclib + Navitoclax (first compound 1 µM), 0.522; with Palbociclib + Tozasertib (first compound 0.01 µM), 0.314; with Palbociclib + Tozasertib (first compound 0.03162 µM) it was 0.268; in the test with Palbociclib + Tozasertib (first compound 0.1 µM), 0.254. Besides, the relative viability stood at 0.308 in the test with Palbociclib + Tozasertib (first compound 0.3162 µM); 0.25 with Palbociclib + Tozasertib (first compound 1 µM); 0.926 with Palbociclib + Decitabine (first compound 0.01 µM); 0.863 with Palbociclib + Decitabine (first compound 0.1 µM); 0.813 with Palbociclib + Decitabine (first compound 0.3162 µM); 0.684 with Palbociclib + Decitabine (first compound 1 µM).
